Our source for the IC50 values is US12466834B2, “Imidazodiazepinediones and methods of use thereof” (GFB (ABC), LLC, priority 2018, dated 2025).

Where only a bound is given, the exact number is not on record here.

For the assay, the target named is T1, human TRPC5 (Homo sapiens, UniProt Q9UL62).
T1 construct: expressed in transfected cells
T1 sequence (Q9UL62 1-973): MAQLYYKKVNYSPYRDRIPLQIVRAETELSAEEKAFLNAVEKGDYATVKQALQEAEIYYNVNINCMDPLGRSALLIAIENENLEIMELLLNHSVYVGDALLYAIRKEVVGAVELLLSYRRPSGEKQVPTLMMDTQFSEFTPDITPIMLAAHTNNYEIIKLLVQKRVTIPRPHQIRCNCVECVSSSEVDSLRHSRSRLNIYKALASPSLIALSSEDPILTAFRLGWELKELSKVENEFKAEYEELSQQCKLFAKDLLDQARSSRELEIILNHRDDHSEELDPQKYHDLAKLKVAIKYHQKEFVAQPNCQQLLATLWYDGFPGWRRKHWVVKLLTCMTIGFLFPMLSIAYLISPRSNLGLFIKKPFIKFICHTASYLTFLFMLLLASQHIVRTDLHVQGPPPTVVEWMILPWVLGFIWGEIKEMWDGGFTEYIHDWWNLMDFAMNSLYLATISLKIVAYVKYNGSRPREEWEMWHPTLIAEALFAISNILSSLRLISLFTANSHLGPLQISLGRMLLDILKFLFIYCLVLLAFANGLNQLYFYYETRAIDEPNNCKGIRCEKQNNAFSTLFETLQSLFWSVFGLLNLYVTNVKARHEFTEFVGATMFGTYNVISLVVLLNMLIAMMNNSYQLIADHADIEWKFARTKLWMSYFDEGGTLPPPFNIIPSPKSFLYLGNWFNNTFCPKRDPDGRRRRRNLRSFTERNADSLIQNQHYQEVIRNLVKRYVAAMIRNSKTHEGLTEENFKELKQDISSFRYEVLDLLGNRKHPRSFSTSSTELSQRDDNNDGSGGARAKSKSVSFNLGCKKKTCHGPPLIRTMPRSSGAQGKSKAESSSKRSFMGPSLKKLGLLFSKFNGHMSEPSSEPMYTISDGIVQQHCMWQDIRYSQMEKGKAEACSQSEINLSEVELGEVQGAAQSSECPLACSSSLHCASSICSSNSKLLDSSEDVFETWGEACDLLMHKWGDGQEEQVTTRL
Kind of assay: Automated patch clamp assay (QPatch), antagonist mode. The note with it: HEK-TREx hTRPC5 cells; channel activated with Rosiglitazone 30 μM; normalised to ML-204 block; read-out: Qpatch Potency Range. It counts as cell-based. The procedure:
ICLN-1633 cells (HEK-TREx hTRPC5) expressing TRPC5 were generated as follows. Commercially available HekTrex-293 cells were seeded at 0.7×10^6 cells/well in a 1×6-well plate 24 hrs prior to transfection using 2 mL cell growth media containing no antibiotics (1× DMEM/high glucose (Hyclone #SH30022.02); 10% fetal bovine serum (Sigma) 2 mM sodium pyruvate, 10 mM HEPES). The human TRPC5 coding sequence (NM_012471 with a silent T478C mutation) was cloned into pcDNA5/TO (Invitrogen; Cat No. V103320) using hygromycin as the resistance gene and the plasmid (SEQ ID NO:1) propagated using T-Rex-293 cells (Invitrogen; Cat No. R71007) following manufacturer's directions. On day 2, 2 μg of plasmid DNA plus 6 μl of Xtreme-GENE HP reagent in Optimem (200 μl total volume) was prepared and incubated for 15 min at room temperature. This plasmid solution was then gently overlayed dropwise onto each well and the plate was gently swirled to mix complex with the media for approximately 30 seconds. Transfected cells were incubated at 37° C. in a 10% CO2 incubator for 24 hrs. The transfected cells were harvested and transferred into 2×150 mm dishes containing cell growth media with no antibiotics at 37° C.
The next day selection was initiated to generate a stable pool by adding cell growth media containing 150 μg/mL Hygromycin and 5 μg/mL Blasticidin and cells were allowed to grow. Media with the selection agent was changed every 1-2 days as needed to remove dead cells. After 7 days, the hygromycin concentration was reduced to 75 μg/mL and cells growth was allowed to continue.
Single clones were selected as follows. The stable pool was diluted to 10 cells/mL and seeded (100 μl/well) into 24×96 well plates (˜1 cell/well) and allowed to grow for 7 days in cell growth media. Fresh media (100 μl) was added and the cells allowed to grow for another 1-2 weeks and then stored frozen or used immediately.
The automated electrophysiological assay was carried out at room temperature. On the day of the experiment, TRPC5 cells were cultured according to our Standard Operating Procedure. Briefly, cells were harvested using TrypLE™ Express, re-suspended in serum free medium, added to the automated platform and used within 0.5-3 hours. Internal and external physiological solutions were freshly prepared prior to the assay. The external solution contained: 145 mM NaCl, 4 mM KCl, 2 mM CaCl2, 1 mM MgCl2, 10 mM HEPES, 10 mM glucose, pH 7.4 with NaOH and 310 mOsm/L. The internal solution contained 120 mM L-aspartic acid, 120 mM CsOH·H2O, 20 mM CsCl, 2 mM MgCl2, 8.8 mM CaCl2, 10 mM EGTA, 10 mM HEPES and 2 mM Na2ATP; pH 7.2 with CsOH and 330 mOsm/L. The free internal Ca^2+ concentration was buffered to 1 μM, according to the WCabuf software. The automated electrophysiological platform QPatch 16 from Sophion (Denmark) was used to carry out the compounds profiling. The series resistance and quality of seals were continuously monitored during the experiments. Data were analyzed using Sophion QPatch assay software 5.6 (Odense). Data were normalized using the maximum activation obtained during the pre-compound agonist application as the top value (1.0) and maximum inhibition induced by ML-204 as the bottom value (0.0). IC50 values were calculated using a least squares regression algorithm (Hill equation).
To monitor the ion currents, a voltage ramp from −100 mV to +100 mV, over 300 ms, was applied every 10 seconds, from a holding potential of −60 mV. Antagonist-mode: After recording for a minimum of 60 seconds control period, the EC60 concentration of the TRPC5 agonist, Rosiglitazone (30 μM), was applied to activate the channel. After reaching steady-state, co-application of increasing concentrations of test compound were applied followed by two applications of Rosiglitazone EC60 and a saturating concentration of the specific blocker ML-204 (100 μM).
In general terms: The patch-clamp technique gives a direct electrical read-out from membranes.
Take `C[C@@H]1C(=O)N(C)c2nc(Oc3cccc(F)c3)n(Cc3ccc(Cl)cc3)c2C(=O)N1CCCO` (single isomer, unassigned) [Compound 19]: the IC50 was more than 30 µM. In the case of `O=C1c2c(nc(Oc3cccc(OC(F)(F)F)c3)n2Cc2ccc(Cl)cc2)N2CCC[C@H]2C(=O)N1CCCO` (single isomer, unassigned) [Compound 22] it was more than 30 µM; in that of `O=C1c2c(nc(Oc3cccc(OC(F)(F)F)c3)n2Cc2ccc(Cl)cc2)N2CCC[C@@H]2C(=O)N1CCCO` (single isomer, unassigned) [Compound 23], 1 to 30 µM. In the case of `CN1CC(=O)N(CCCO)C(=O)c2c1nc(Oc1cccc(OC(F)(F)F)c1)n2Cc1ccc(Cl)cc1` [Compound 21, 1-[(4-chlorophenyl)methyl]-7-(3-hydroxypropyl)-4-methyl-2-[3-(trifluoromethoxy)phenoxy]-1H,4H,5H,6H,7H,8H-imidazo[4,5-e][1,4]diazepine-6,8-dione], the IC50 was 1 to 30 µM.
